# What was measured:
# Assay in all cases: In vitro MMP inhibition, IC50 determination (fluorogenic substrate I)
# Assay type in all cases: biochemical
# Details in all cases: value outside parenthesis
# [1] = molecular target: T1, Human recombinant MMP-1 (Homo sapiens, UniProt P03956)
# T1 construct: made in house; host or cells: MMP-1-transfected HT-1080 cells (spent media)
# T1 sequence (P03956 100-469): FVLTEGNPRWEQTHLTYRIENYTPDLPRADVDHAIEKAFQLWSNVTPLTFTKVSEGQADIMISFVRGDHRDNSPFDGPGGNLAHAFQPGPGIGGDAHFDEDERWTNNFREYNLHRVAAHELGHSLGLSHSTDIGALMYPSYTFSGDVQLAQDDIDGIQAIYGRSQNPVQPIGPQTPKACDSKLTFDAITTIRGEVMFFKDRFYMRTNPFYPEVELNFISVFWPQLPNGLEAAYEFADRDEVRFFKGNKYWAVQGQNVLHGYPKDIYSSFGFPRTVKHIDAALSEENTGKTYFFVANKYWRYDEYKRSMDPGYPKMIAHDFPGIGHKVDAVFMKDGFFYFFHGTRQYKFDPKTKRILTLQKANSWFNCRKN
# Summary of the method: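 APMA- or trypsin-activated enzyme, purified from spent media of transfected HT-1080 cells, incubated at room temperature with 4 μM MCA-Pro-Leu-Gly-Leu-Dpa-Ala-Arg-NH2 and graded inhibitor in Tris buffer pH 7.5 (10 mM CaCl2, 0.05% Brij). Cleavage read by fluorescence (ex 328/em 415 nm); IC50 from fluorescence reduction versus inhibitor concentration.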
# [2] = molecular target: T2, Human recombinant MMP-2 (Homo sapiens, UniProt P08253)
# T2 construct: made in house; host or cells: MMP-2-transfected p2AHT2 cells
# T2 sequence (P08253 110-660): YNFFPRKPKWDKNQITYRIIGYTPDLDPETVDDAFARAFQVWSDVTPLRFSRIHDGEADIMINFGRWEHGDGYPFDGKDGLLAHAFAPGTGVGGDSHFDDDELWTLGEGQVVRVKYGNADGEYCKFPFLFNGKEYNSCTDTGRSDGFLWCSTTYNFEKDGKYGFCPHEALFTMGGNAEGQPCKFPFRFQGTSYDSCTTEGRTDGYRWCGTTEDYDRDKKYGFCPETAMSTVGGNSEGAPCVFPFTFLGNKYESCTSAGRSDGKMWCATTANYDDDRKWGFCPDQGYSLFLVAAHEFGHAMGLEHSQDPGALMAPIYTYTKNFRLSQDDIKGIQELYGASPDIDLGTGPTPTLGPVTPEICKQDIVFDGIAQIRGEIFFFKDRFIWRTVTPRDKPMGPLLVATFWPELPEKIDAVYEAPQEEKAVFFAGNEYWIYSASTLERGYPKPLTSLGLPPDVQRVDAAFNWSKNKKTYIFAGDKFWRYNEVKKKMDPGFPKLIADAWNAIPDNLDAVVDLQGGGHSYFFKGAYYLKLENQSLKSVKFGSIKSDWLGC
# Summary of the method: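 APMA- or trypsin-activated recombinant MMP-2 was incubated at room temperature with serial inhibitor dilutions in Tris buffer pH 7.5 (100 mM NaCl, 10 mM CaCl2, 0.05% Brij), with DMSO from 1% stocks, and 4 μM substrate I. Cleavage was read by fluorescence at 328/415 nm; IC50 was taken from the loss of fluorescence versus inhibitor concentration.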
# [3] = molecular target: T3, Human recombinant MMP-9 (Homo sapiens, UniProt P14780)
# T3 construct: made in house; host or cells: MMP-9-transfected HT1080 cells (spent media)
# Summary of the method: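 MMP-9 proenzyme purified from transfected HT1080 cell media, activated with APMA or trypsin. Compound dilutions in pH 7.5 Tris/NaCl/CaCl2 buffer with 0.05% polyoxyethylene 23 lauryl ether, incubated at room temperature with 4 μM MCA/Dpa substrate I. IC50 from fluorescence loss (ex 328, em 415 nm) versus inhibitor concentration.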
# [4] = molecular target: T4, Human recombinant MMP-13 (Homo sapiens, UniProt P45452)
# T4 construct: made in house; host or cells: baculovirus / insect cells
# Summary of the method: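 Fluorescence at 415 nm (excitation 328 nm) reports Gly-Leu cleavage of 4 μM quenched methoxycoumarin peptide substrate I. Human recombinant MMP-13, activated by trypsin or APMA, was incubated at room temperature with varied inhibitor concentrations in pH 7.5 Tris/NaCl/CaCl2 buffer; IC50 derived from reduced fluorescence.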
# [5] = molecular target: T5, Human recombinant MMP-14 (Homo sapiens, UniProt P50281)
# T5 construct: The catalytic domain enzyme was expressed in E. coli inclusion bodies, solubilized in urea; made in house
# Summary of the method: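 Catalytic-domain MMP-14, expressed in E. coli and refolded, activated with APMA or trypsin; compounds incubated at room temperature with 4 μM fluorogenic substrate I (MCA-PLGL-Dpa-AR-NH2) in Tris/NaCl/CaCl2 buffer, pH 7.5. Fluorescence at ex 328/em 415 nm; IC50 from loss of fluorescence versus inhibitor concentration.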
# T3 sequence (P14780 107-707 limits assumed): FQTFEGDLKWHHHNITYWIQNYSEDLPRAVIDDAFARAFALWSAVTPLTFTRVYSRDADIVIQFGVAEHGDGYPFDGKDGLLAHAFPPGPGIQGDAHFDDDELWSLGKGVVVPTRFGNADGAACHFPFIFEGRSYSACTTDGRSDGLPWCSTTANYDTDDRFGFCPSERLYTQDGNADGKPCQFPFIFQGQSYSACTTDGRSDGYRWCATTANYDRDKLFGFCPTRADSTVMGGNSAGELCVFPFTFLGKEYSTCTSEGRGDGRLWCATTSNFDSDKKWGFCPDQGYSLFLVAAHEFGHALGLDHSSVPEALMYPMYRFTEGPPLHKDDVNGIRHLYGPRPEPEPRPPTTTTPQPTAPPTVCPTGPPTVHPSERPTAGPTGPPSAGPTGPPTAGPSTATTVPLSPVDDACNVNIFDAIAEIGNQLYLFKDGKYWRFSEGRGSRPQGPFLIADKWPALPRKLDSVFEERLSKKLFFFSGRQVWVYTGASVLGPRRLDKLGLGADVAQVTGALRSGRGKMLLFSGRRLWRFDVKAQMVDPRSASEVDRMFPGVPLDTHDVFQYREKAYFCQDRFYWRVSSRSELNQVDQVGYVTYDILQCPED
Structure (SMILES),IC50 [1],IC50 [2],IC50 [3],IC50 [4],IC50 [5]
CCOc1ccc(-c2noc(CCCOc3ccc(S(=O)(=O)C4(C(=O)NO)CCN(C5CC5)CC4)cc3)n2)cc1 [Example 268],> 10 µM,0.126 µM,0.674 µM,0.0025 µM,> 10 µM
O=C(NO)C1(S(=O)(=O)c2ccc(OCCCc3cccc(-c4ccccc4)c3)cc2)CCOCC1 [Example 269],> 10 µM,0.898 µM,2.75 µM,0.0018 µM,> 10 µM
CC1CC(C)CN(S(=O)(=O)CCCOc2ccc(S(=O)(=O)C3(C(=O)NO)CCOCC3)cc2)C1 (stereo not shown) [Example 271],> 10 µM,0.0087 µM,0.532 µM,0.0029 µM,> 10 µM
O=C(CCCOc1ccc(S(=O)(=O)C2(C(=O)NO)CCOCC2)cc1)NNC(=O)c1ccc(Cl)cc1 [Example 272],0.399 µM,0.0042 µM,0.152 µM,0.0028 µM,> 10 µM
COC(=O)CCCOc1ccc(S(=O)(=O)C2(C(=O)NO)CCOCC2)cc1 [Example 274],9.86 µM,0.0154 µM,0.0336 µM,0.0041 µM,> 10 µM
CC(CCOc1ccc(S(=O)(=O)C2(C(=O)NO)CCOCC2)cc1)C(=O)c1cccs1 (stereo not shown) [Example 276],6.67 µM,0.0174 µM,0.196 µM,0.0028 µM,7.02 µM
COc1ccc(C(=O)CCCCOc2ccc(S(=O)(=O)C3(C(=O)NO)CCN(C4CC4)CC3)cc2)cc1 [Example 277],> 10 µM,0.0035 µM,0.0415 µM,0.0002 µM,> 10 µM
CC(C)(C)c1ccc(-c2nnc(CCCOc3ccc(S(=O)(=O)C4(C(=O)NO)CCOCC4)cc3)o2)cc1 [Example 278],> 10 µM,0.208 µM,0.494 µM,0.0037 µM,> 10 µM
COc1cccc(-c2nnc(CCCOc3ccc(S(=O)(=O)C4(C(=O)NO)CCOCC4)cc3)o2)c1 [Example 280],> 10 µM,0.17 µM,2.03 µM,0.0015 µM,> 10 µM
O=C(NO)C1(S(=O)(=O)c2ccc(OCCSc3nc4cc(Cl)ccc4s3)cc2)CCOCC1 [Example 281],> 10 µM,0.0704 µM,0.276 µM,0.0013 µM,> 10 µM
COc1ccc2sc(SCCOc3ccc(S(=O)(=O)C4(C(=O)NO)CCOCC4)cc3)nc2c1 [Example 282],> 10 µM,0.0433 µM,0.704 µM,0.0026 µM,> 10 µM
O=C(NO)C1(S(=O)(=O)c2ccc(OCCCSc3nc4cc(Cl)ccc4s3)cc2)CCOCC1 [Example 284],> 10 µM,0.0101 µM,0.0185 µM,0.0011 µM,> 10 µM
COc1ccc2sc(SCCCOc3ccc(S(=O)(=O)C4(C(=O)NO)CCOCC4)cc3)nc2c1 [Example 285],> 10 µM,0.0167 µM,0.0236 µM,0.0018 µM,> 10 µM
Cc1cc(C)nc(SCCCOc2ccc(S(=O)(=O)C3(C(=O)NO)CCOCC3)cc2)n1 [Example 286],> 10 µM,0.0749 µM,1.13 µM,0.004 µM,> 10 µM
